Like-named read-outs stand apart in the source and are kept apart here.
Legend:
[1] = system: progranulin mRNA expression in primary cortical neurons; test: Progranulin mRNA expression by quantitative PCR in primary cortical neurons; format: cell-based, rat; settings: for increase in progranulin mRNA expression: after 8 h of treatment, primary cortical neurons
Protocol: (§1) Primary cortical (Cx) and hippocampal (Hp) neurons are derived from E17 Sprague-Dawley rats and cultured in 24-well plates (325,000 cells/well for Cx and 250,000 cells/well for Hp). Half of the medium is replaced with fresh medium every four days. On day 10 of culture, neurons are incubated in the presence of different concentrations (0.1-3 μM) of a compound of the invention, e.g., Compound 1, for 2-24 h. At specific time points, conditioned medium is removed and frozen until needed for ELISA assay. Cells are washed with PBS and RNA is extracted with Qiazol reagent using the RNeasy kit from Qiagen (Valencia, Calif.) following manufacturer instructions. RNA is then transcribed into cDNA using the high capacity cDNA reverse transcription kit from Applied Biosystems (Carlsbad, Calif.) according to kit instructions.
Relative progranulin gene expression is measured by quantitative PCR using rat-specific probes (Applied Biosystems, Carlsbad, Calif.) for the granulin gene and for Rp113a as a reference gene. The ΔΔCt method is used for calculations of relative gene expression levels (Pfaffl, Nucleic Acids Res., 2001). This method compares expression of the different genes (reference and gene of interest) in cells treated with vehicle versus the compound of the invention. Moreover, this measurement and analysis of mRNA levels is expected to be predictive of the expression of progranulin protein levels.
Neuronal granulin gene expression was measured at different time points as described in Example 1 (1, 4, 6, 8, 10, 18 and 24 h) following treatment with (Z)-4-(dibenzo[b,f][1,4]oxazepin-11-yl)-N-hydroxybenzamide

[2] = Brain penetration (brain:plasma ratio of drug levels) after acute and repeated dosing; format: in vivo; settings: rodents
[3] = Maximum Tolerated Dose in humans, oral dosing; format: in vivo; settings: healthy volunteers
[4] = system: progranulin mRNA in lymphoblasts from progranulin mutation carriers; test: Progranulin mRNA expression in FTLD patient lymphoblast cell lines (qPCR); format: cell-based, human; settings: 3 μM, after 24 h
Protocol: (§2) Immortalized (Epstein-Barr-Virus) B-lymphocytes isolated from the peripheral blood of patients subject harboring different mutations in the granulin gene were used to measure effects of compounds on progranulin mRNA and protein expression. The cell lines were maintained in complete growth medium (cGM), comprised of RPMI 1640 medium supplemented with 15% heat-inactivated FBS, 4 mM L-Glutamine and 1% Penicillin/Streptomycin. Cells were seeded into 24-well tissue-culture plates at a density of 400,000-500,000 cells per well in cGM. Following an overnight incubation, the cells were treated with 0.3 or 3 μM of Compound 1. Following an 8- or 24-hour exposure to Compound 1, cells were collected, spun, and the resulting cell pellets underwent a single rinse in chilled PBS.
(§3) For analysis of progranulin mRNA expression, samples were analyzed as described in Example 1, with the exception that probes specific for the human granulin gene (Applied Biosystems, Carlsbad, Calif.) were used.

[5] = system: progranulin protein in lymphoblasts from progranulin mutation carriers; test: Progranulin protein expression in FTLD patient lymphoblast cell lines (ELISA); format: cell-based, human; settings: 3 μM, after 24 h
Protocol: as §2
(§4) For analysis of progranulin protein expression, cell pellets were re-suspended in 150 μl of chilled RIPA Lysis Buffer supplemented with a protease-inhibitor cocktail and incubated for 15-20 minutes at 4° C. to allow for cell lysis. Total protein concentrations of each sample were determined by performing a BCA protein assay (Pierce). Quantitative determination of Progranulin protein levels was performed by ELISA (AdipoGen, Incheon, South Korea), using a 1:20 dilution of the cell lysate following the manufacturer protocol. […]

[6] = system: progranulin mRNA in primary fibroblasts from progranulin mutation carriers; test: Progranulin mRNA expression in primary fibroblasts from progranulin mutation carriers (qPCR); format: cell-based, human; settings: 3 μM, after 8 h
Protocol: as §3
(§5) Primary fibroblasts from patients harboring different mutations in the progranulin gene were isolated and maintained in complete growth medium (cGM), comprised of D-MEM supplemented with 10% heat-inactivated FBS and 1% Penicillin/Streptomycin. The fibroblasts were seeded into 6-well tissue-culture plates at a density of 150,000-190,000 cells per well in cGM. Following overnight incubation, the cells were treated with 0.3 or 3 μM of Compound 1. Analysis of progranulin mRNA expression was performed as described in Example 4. Analysis of progranulin protein was performed as described in Example 4.

[7] = system: progranulin protein in primary fibroblasts from progranulin mutation carriers; test: Progranulin protein expression in primary fibroblasts from progranulin mutation carriers (ELISA); format: cell-based, human; settings: 0.3 μM, after 8 h
Protocol: For analysis of progranulin protein expression, cell pellets were re-suspended in 150 μl of chilled RIPA Lysis Buffer supplemented with a protease-inhibitor cocktail and incubated for 15-20 minutes at 4° C. to allow for cell lysis. Total protein concentrations of each sample were determined by performing a BCA protein assay (Pierce). Quantitative determination of Progranulin protein levels was performed by ELISA (AdipoGen, Incheon, South Korea), using a 1:20 dilution of the cell lysate following the manufacturer protocol. Progranulin levels were expressed relative to protein amount, and compound treatment groups were expressed relative to the vehicle-treated group.
as §5

[8] = system: progranulin protein in immortalized lymphoblasts from a normal human subject; test: Progranulin protein by western blot in immortalized lymphoblasts from a normal human subject; format: cell-based; settings: 24 h
Protocol: Cellular protein from immortalized (Epstein-Barr-Virus) B-lymphocytes isolated from the peripheral blood of normal human volunteers was isolated as described in Example 4. Cells were treated with Compound 1 for 24 h. For Western Blotting analysis of progranulin protein, 50 μg of total cellular protein were separated on a 4-12% Bis-Tris Poly-Acrylamide gel using MOPS Running Buffer, transferred to a PVDF membrane and probed with a R & D Systems (Minneapolis, Minn.) mouse monoclonal anti-human progranulin antibody, followed by an IRDye secondary antibody (Rockland). Detection was performed using the Li-COR Odyssey imaging system. Progranulin signals (Integrated Intensity after background subtraction) were quantified using Li-COR Odyssey software.

[9] = system: progranulin mRNA in cerebral cortex; test: Progranulin mRNA expression in mouse cerebral cortex (qPCR); format: in vivo, C57BL/6 mice; settings: normal mice, 100 mg/kg oral, 8 h after acute dosing
Protocol: (§6) C57BL/6 mice (n=6/group; Charles River) were treated with either vehicle (1% carboxymethylcellulose-medium viscosity/0.5% Tween 80 (99.5:0.5 v/v)) or with an oral dose of 100 mg/kg of Compound 1 prepared in the same vehicle. Animals were sacrificed at specific time points and the brain extracted. Left and right hemisphere of the cerebral cortex were separated and used for RNA and protein extractions.
RNA was extracted with Qiazol reagent using the RNeasy lipid-rich tissue kit from Qiagen (Valencia, Calif.) following manufacturer instructions. RNA was then transcribed into cDNA using the high capacity cDNA reverse transcription kit from Applied Biosystems (Carlsbad, Calif.), according to kit instructions. Relative progranulin gene expression was measured by quantitative PCR using mouse-specific probes (Applied Biosystems, Carlsbad, Calif.) for the granulin gene, and for Rp113a as a reference gene. The ΔΔCt method was used for calculations of relative gene expression levels (Pfaffl, Nucleic Acids Res., 2001). This method compares expression of the different genes (reference and gene of interest) in animals treated with vehicle versus the compound of the invention (FIG. 5A).

[10] = system: progranulin protein in cerebral cortex; test: Progranulin protein levels in mouse cerebral cortex (ELISA); format: in vivo, C57BL/6 mice; settings: normal mice, 100 mg/kg oral, 8 h after acute dosing
Protocol: as §6
Proteins were extracted in 50 mM Tris pH 7.4/150 mM NaCl/0.1% SDS with protease inhibitors using an extraction ratio of 200 mg of brain tissue per ml buffer. Sample was spun for 20 minutes at 16,200 g and supernatant collected. Progranulin levels were measured using a 1:4 dilution of the tissue extract (FIG. 5B) with a mouse ELISA kit from Adipogen (Incheon, South Korea) according to the manufacturer instructions. Progranulin levels were normalized to total protein concentration as measured by the BCA method (Pierce).

[11] = system: progranulin protein in CSF and plasma; test: Progranulin levels in rat CSF and plasma (ELISA); format: in vivo, Sprague Dawley rats; settings: normal rats, 100 mg/kg intra-peritoneally
Protocol: Sprague Dawley rats (n=12/group; Charles River) were dosed intra-peritoneally with either vehicle (Solutol HS 15/Ethanol (3:2 v/v)) or with a dose of 100 mg/kg of Compound 1 prepared in the same vehicle. EDTA-Plasma and CSF were collected after 4 and 8 hours of treatment, and progranulin levels were assessed by ELISA (Adipogen, Incheon, South Korea) using a 1:2 dilution for CSF (FIG. 6A) and a 1:25 dilution for plasma (FIG. 6B).

[12] = system: progranulin protein in rat primary cortical neurons; test: Progranulin protein expression in rat primary cortical neurons (ELISA); format: cell-based; settings: 3 μM, after 8 h
Protocol: as §1, §4

[13] = system: acetylation of histones in the brain; test: Acetylation of histones in the brain of mice, required free plasma exposure; format: in vivo
[14] = cancer patients, oral; cited from earlier work

SMILES	increase in progranulin mRNA expression ([1]; 0.3 μM) [fold]	increase in progranulin mRNA expression ([1]; 3 μM) [fold]	increase in progranulin gene expression ([1]; lowest dose (0.1 μM), as soon as 4 h after treatment, sustained for 24 h) [%]	Kp ([2]; acute and repeated dosing, read-out: brain:plasma (b:p) ratio for drug levels)	Maximum Tolerated Dose (MTD), not observed at highest dose used [3] [mg]	increase in progranulin mRNA [4] [fold]	increase in progranulin protein expression [5] [fold]	increase in progranulin mRNA [6] [fold]	increase in progranulin protein expression [7] [fold]	increase in progranulin protein (western blot) ([8]; 0.3 μM) [fold]	increase in progranulin protein (western blot) ([8]; 3 μM) [fold]	increase in progranulin mRNA in brain (cerebral cortex) [9] [fold]	increase in progranulin protein levels in brain (cerebral cortex) [10]	increase in CSF progranulin protein ([11]; 4 h after acute dosing)	increase in plasma progranulin protein levels ([11]; concomitantly (4 h after acute dosing))	increase in progranulin protein expression [12] [fold]	Kp ([2]; acute dosing experiments, read-out: brain:plasma (b:p) ratio)	excess of plasma protein unbound ('free') drug required to produce acetylation of histones in the brain, compared to Compound 1 [13] [fold]	Maximum Tolerated Dose (MTD) [14] [mg]
O=C(NO)c1ccc(C2=Nc3ccccc3Oc3ccccc32)cc1 [Compound 1, (Z)-4-(dibenzo[b,f][1,4]oxazepin-11-yl)-N-hydroxybenzamide]	~2	~5	~40	~5	> 400	2.4	1.5	1.3	1.1	1.3	1.6	1.45	about 1.16 fold	about 1.9 fold	about 1.4 fold	1.77			
O=C(CCCCCCC(=O)Nc1ccccc1)NO [SAHA]																	~0.1	~30	400

Reference: patent US20140179678A1, “METHODS OF TARGETED TREATMENT OF FRONTOTEMPORAL LOBAR DEGENERATION” (priority 2011, published 2014)
